Literature values, collected in paper PMC7645643 (Engineering in Life Sciences, 2020).

Enfuvirtide [T-20]
in vivo half-life: approximately 4 h
